Measured values as given in patent publication US4654368A, “Tri-organotin silatrane derivatives and pesticidal compositions, fungicides or antifouling agents comprising said compounds as active ingredients” (Nitto Kasei Co., Ltd., priority 1984, dated 1987).

How the values were obtained:
Type in all cases: in vivo
Plasmopara viticola = experiment: Test on fungicidal effect on downy mildew of grape; conditions: sprayed on grape seedlings
Source text: Sandy soil was filled in plastic pots, and seeds of grape (variety: Neomuscat) were sown, and grown for about 1 month in a greenhouse to obtain young seedlings of grape in the 2-3 leaf stage. A water dilution of an emulsifiable concentrate of a wettable powder of each of the test compounds was sprayed onto the leaves of these seedlings so that the chemical adhered fully to the surfaces of the leaves. After drying the chemical in air, a suspension of conidospores of a […] pathogen of grape (Plasmopara viticola) was inoculated in the seedling by spraying. The seedlings were placed for 2 days in a high humidity condition at 23° C., and subsequently cultivated for 14 days in a greenhouse kept at 20° to 25° C. to cause onset of the disease. Thereafter, the state of the disease was observed.
The degree of disease was calculated by the following method. The examined leaves were classified by indices of 0, 0.5, 1, 2 and 4 according to the degrees of appearance of lesions, and the degree of disease was calculated from the following equation.
0: No fungus colony or lesion was noted on the surface of the leaves.
The control index was calculated from the following equation. [formula]

Culex pipiens = experiment: Test on insecticidal effect on Culex pipiens; conditions: 3.5 ppm, wettable powder of Formulation Example 5 (contains Fenitrothion); for Death rate: final-instar larvae, next day, 1440 min; for Emergence inhibition rate: when all larvae in non-treated area emerged
Protocol: A wettable powder of each of compounds Nos. 2, 7, 8, 11, 13, 14, 17, 18 and 31 obtained in accordance with Formulation Example 5 was diluted with water to 3.5 ppm. One hundred milliliters of the dilution was put in each of 180 ml. polyethylene cups and 20 final-instar larvae of Culex pipiens were released into the cup. On the next day, the larvae were examined for mortality.
Thereafter, feeds were added to the test areas, and when all larvae n the non-treated area emerged, the emergence inhibition rate was examined.
The death rate and the emergence inhibition rate were rated by three grades as follows: […]

[1] = system: marine animals and plants; experiment: Test on antifouling effects on marine animals and plants in the sea; conditions: Owase Bay; for Fouled state, period of submerging 4 months / Fouled state, period of submerging 8 months / Fouled state, period of submerging 12 months: antifouling paint on vinyl chloride plate
Protocol: A ship bottom antifouling paint was prepared by adding 24 g of Rosin WW, 12 g of a vinyl copolymer, 4 g of tricresyl phosphate, 10 g of bentonite, 20 g of baryta, 20 g of red iron oxide, 35 g of xylene and 35 g of methyl isobutyl ketone to 40 g of each of compounds Nos. 2, 8, 14, 17, 20 and 32 of the invention and vigorously stirring the mixture at room temperature for 1 hour. The paint was coated on both surfaces of a rigid vinyl chloride resin plate, 17×9×0.3 cm in size, to a dry thickness of about 200 microns. The coated plate was submerged in the sea in Owase Bay, Mie Prefecture, Japan for 12 months, and its fouled state was regularly observed.
The symbols in the table show the following.

[2] = system: tobacco cutworms (Prodenia litura Fabrficius); experiment: Test on insecticidal efficacy on tobacco cutworms; conditions: 500 ppm in artificial feed, 4th-instar larvae, 6 days; wettable powder of Formulation Example 5 (contains Fenitrothion)
Protocol: A wettable powder of each of compounds Nos. 3, 7, 8, 9, 11, 12, 13, 14, 17, 18 and 31 of the invention obtained in accordance with Formulation Example 5 was diluted with water to 200 times (corresponding to a concentration of 500 ppm). Two milliliters of the dilution was impregnated in 13 g of an artificial feed for tobacco cutworms, and the feed was put in a polyethylene cup having a diameter of 11 cm. Ten 4th-instar larvae of tobacco cutworms were released into the cup, and examined for mortality 6 days later. The above experiment was carried out through two replicates.

[3] = system: carmine mites (Tetranychus telarius L.); experiment: Miticidal effect on carmine mites; set-up: key: -: Hardly any injury was observed.; +: Some injury was observed.; ++: The same injury as in the non-treated area was noted; conditions: 500 ppm active ingredient, spray plus soil, kidney beans, 8 days later
Protocol: Female imagoes of carmine mites were caused to live at a rate of 10 per leaf on bineless kidney beans (in the primary leaf stage) in pots 7 days after sowing, and kept in a constant temperature chamber at 25° C. Six days later, a chemical obtained by diluting a wettable powder of each of compounds Nos. 4-6, 9-13, 15, 16, 21, 22, 25, 28-30, 33, 34, 36, 37 and 38 with water to an active ingredient concentration of 500 ppm was sprayed at a rate of 10 ml per pot, and at the same time, 2 ml of the chemical was poured into the soil. Eight days later, injuries to the plants by the mites were examined.
The degree of injury is shown by -, + and ++ as follows: […]

`c1cc[c]([Sn]([S]CCC[Si]23OCCN(CCO2)CCO3)([c]2ccccc2)[c]2ccccc2)cc1` [compound 1] was tested, and the Control index (Plasmopara viticola; 12.5 ppm active ingredient) was 97%, the Control index (Plasmopara viticola; 50 ppm active ingredient) was 100% and the Control index (Plasmopara viticola; 200 ppm active ingredient) was 100%.

With `c1cc[c]([Sn]([S]CC[Si]23OCCN(CCO2)CCO3)([c]2ccccc2)[c]2ccccc2)cc1` [compound 2, 1-(2-triphenylstannylthioethyl)silatrane] the Death rate (Culex pipiens) was “B (less than 90% to 10%)”, the Emergence inhibition rate (Culex pipiens) was “A (90% or higher)” and the “Fouled state, period of submerging 4 months” value [1] was “.circle”. For the same molecule, the “Fouled state, period of submerging 8 months” value [1] was “.circle” and the “Fouled state, period of submerging 12 months” value [1] was “.circle”.

Work on `CC1CN2CC(C)O[Si](CC[S][Sn]([c]3ccccc3)([c]3ccccc3)[c]3ccccc3)(O1)OC(C)C2` (centres unmarked) [compound 3] yielded a Control index (Plasmopara viticola; 12.5 ppm active ingredient) of 98%, a Control index (Plasmopara viticola; 50 ppm active ingredient) of 100% and a Control index (Plasmopara viticola; 200 ppm active ingredient) of 100%. It also gave a Death rate [2] of 100%.

For `CC(C)([CH2][Sn]([CH2]C(C)(C)c1ccccc1)([CH2]C(C)(C)c1ccccc1)[S]CCC[Si]12OCCN(CCO1)CCO2)c1ccccc1` [compound 4, 1-(3-trineophylstannylthiopropyl)silatrane], the Degree of injury [3] was “-”.

In the case of `CC(C)([CH2][Sn]([CH2]C(C)(C)c1ccccc1)([CH2]C(C)(C)c1ccccc1)[S]CC[Si]12OCCN(CCO1)CCO2)c1ccccc1` [compound 5], the Degree of injury [3] is reported as “-~+”.

With `CC1CN2CC(C)O[Si](CC[S][Sn]([CH2]C(C)(C)c3ccccc3)([CH2]C(C)(C)c3ccccc3)[CH2]C(C)(C)c3ccccc3)(O1)OC(C)C2` (centres unmarked) [compound 6] the Degree of injury [3] was “-~+”.

For `C1CC[CH]([Sn]([S]CC[Si]23OCCN(CCO2)CCO3)([CH]2CCCCC2)[CH]2CCCCC2)CC1` [compound 7], the Death rate (Culex pipiens) was “C (less than 10%)”, the Emergence inhibition rate (Culex pipiens) was “A (90% or higher)” and the Death rate [2] was 100%.

Work on `CCC[CH2][Sn]([CH2]CCC)([CH2]CCC)[S]CC[Si]12OC(C)CN(CC(C)O1)CC(C)O2` (centres unmarked) [compound 8] yielded a Control index (Plasmopara viticola; 12.5 ppm active ingredient) of 94%, a Control index (Plasmopara viticola; 50 ppm active ingredient) of 100% and a Control index (Plasmopara viticola; 200 ppm active ingredient) of 100%. For the same molecule, the Death rate (Culex pipiens) was “B (less than 90% to 10%)”, the Emergence inhibition rate (Culex pipiens) was “A (90% or higher)” and the “Fouled state, period of submerging 4 months” value [1] was “.circle”. For the same molecule, the “Fouled state, period of submerging 8 months” value [1] was “.circle”, the “Fouled state, period of submerging 12 months” value [1] was “.circle” and the Death rate [2] was 100%.

In the case of `CC1CN2CC(C)O[Si](CCC[S][Sn]([c]3ccccc3)([c]3ccccc3)[c]3ccccc3)(O1)OC(C)C2` (centres unmarked) [compound 9, 1-(3-triphenylstannylthiopropyl)-3,7,10-trimethylsilatrane], the Control index (Plasmopara viticola; 12.5 ppm active ingredient) is reported as 98%, the Control index (Plasmopara viticola; 50 ppm active ingredient) is reported as 100% and the Control index (Plasmopara viticola; 200 ppm active ingredient) is reported as 100%. The Degree of injury [3] was “-” and the Death rate [2] was 100%.

`CC1CN2CC(C)O[Si](CCC[S][Sn]([CH2]C(C)(C)c3ccccc3)([CH2]C(C)(C)c3ccccc3)[CH2]C(C)(C)c3ccccc3)(O1)OC(C)C2` (centres unmarked) [compound 10] was tested, and the Degree of injury [3] was “-”.

For `CC1CN2CC(C)O[Si](CCC[S][Sn]([CH]3CCCCC3)([CH]3CCCCC3)[CH]3CCCCC3)(O1)OC(C)C2` (centres unmarked) [compound 11], the Control index (Plasmopara viticola; 12.5 ppm active ingredient) was 96%, the Control index (Plasmopara viticola; 50 ppm active ingredient) was 100% and the Control index (Plasmopara viticola; 200 ppm active ingredient) was 100%. For the same molecule, the Degree of injury [3] was “-”, the Death rate (Culex pipiens) was “B (less than 90% to 10%)” and the Emergence inhibition rate (Culex pipiens) was “A (90% or higher)”. It also gave a Death rate [2] of 100%.

With `C1CC[CH]([Sn]([S]CCC[Si]23OCCN(CCO2)CCO3)([CH]2CCCCC2)[CH]2CCCCC2)CC1` [compound 13] the Degree of injury [3] was “-”, the Death rate (Culex pipiens) was “A (90% or higher)” and the Emergence inhibition rate (Culex pipiens) was “A (90% or higher)”. The Death rate [2] was 100%.

`CCC[CH2][Sn]([CH2]CCC)([CH2]CCC)[S]CCC[Si]12OCCN(CCO1)CCO2` [compound 14] was tested, and the Death rate (Culex pipiens) was “A (90% or higher)”, the Emergence inhibition rate (Culex pipiens) was “A (90% or higher)” and the “Fouled state, period of submerging 4 months” value [1] was “.circle”. For the same molecule, the “Fouled state, period of submerging 8 months” value [1] was “.circle”, the “Fouled state, period of submerging 12 months” value [1] was “.circle” and the Death rate [2] was 100%.

In the case of `CCCCCCC[CH2][Sn]([CH2]CCCCCCC)([CH2]CCCCCCC)[S]CCC[Si]12OCCN(CCO1)CCO2` [compound 15], the Degree of injury [3] is reported as “-”.

`CCCCCCC[CH2][Sn]([CH2]CCCCCCC)([CH2]CCCCCCC)[S]CCC[Si]12OC(C)CN(CC(C)O1)CC(C)O2` (centres unmarked) [compound 16] was tested, and the Degree of injury [3] was “-”.

In the case of `CCC1CN2CCO[Si](CCC[S][Sn]([c]3ccccc3)([c]3ccccc3)[c]3ccccc3)(O1)OC(CC)C2` (centres unmarked) [compound 20], the “Fouled state, period of submerging 4 months” value [1] is reported as “.circle”, the “Fouled state, period of submerging 8 months” value [1] is reported as “.circle” and the “Fouled state, period of submerging 12 months” value [1] is reported as “Δ (Marine animals and plants adhered to less than 5% of the area of the coated film)”. The “Fouled by” value ([1]; antifouling paint, up to 12 months) was “Algae”.

In the case of `CCC1CN2CCO[Si](CCC[S][Sn]([CH2]C(C)(C)c3ccccc3)([CH2]C(C)(C)c3ccccc3)[CH2]C(C)(C)c3ccccc3)(O1)OC(CC)C2` (centres unmarked) [compound 21], the Degree of injury [3] is reported as “-”.

In the case of `CCC1CN2CCO[Si](CCC[S][Sn]([CH]3CCCCC3)([CH]3CCCCC3)[CH]3CCCCC3)(O1)OC(CC)C2` (centres unmarked) [compound 22], the Degree of injury [3] is reported as “-~+”.

With `CCC[CH2][Sn]([CH2]CCC)([CH2]CCC)[S]CCC[Si]12OCCN(CCO1)CC(CC)O2` (centres unmarked) [compound 25] the Degree of injury [3] was “-~+”.

With `CCC1CN2CCO[Si](CCC[S][Sn]([CH2]C(C)C)([CH2]C(C)C)[CH2]C(C)C)(O1)OC(CC)C2` (centres unmarked) [compound 28] the Degree of injury [3] was “-”.

For `CCCCCCC[CH2][Sn]([CH2]CCCCCCC)([CH2]CCCCCCC)[S]CCC[Si]12OCCN(CCO1)CCO2` [compound 29], the Degree of injury [3] was “-~+”.

`CCCCCCC[CH2][Sn]([CH2]CCCCCCC)([CH2]CCCCCCC)[S]CCC[Si]12OC(C)CN(CC(C)O1)CC(C)O2` (centres unmarked) [compound 30] was tested, and the Degree of injury [3] was “-”.

With `CCC1CN2CCO[Si](CCC[S][Sn]([c]3ccccc3)([c]3ccccc3)[c]3ccccc3)(OCC2)O1` (centres unmarked) [compound 31] the Death rate (Culex pipiens) was “B (less than 90% to 10%)”, the Emergence inhibition rate (Culex pipiens) was “A (90% or higher)” and the Death rate [2] was 100%.

`CCC1CN2CCO[Si](CCC[S][Sn]([CH2]C(C)(C)c3ccccc3)([CH2]C(C)(C)c3ccccc3)[CH2]C(C)(C)c3ccccc3)(OCC2)O1` (centres unmarked) [compound 33] was tested, and the Degree of injury [3] was “-”.

In the case of `CCC1CN2CC(C)O[Si](CCC[S][Sn]([CH2]C(C)(C)c3ccccc3)([CH2]C(C)(C)c3ccccc3)[CH2]C(C)(C)c3ccccc3)(OC(C)C2)O1` (centres unmarked) [compound 34], the Degree of injury [3] is reported as “-”.

`CCC1CN2CCO[Si](CCC[S][Sn]([CH]3CCCCC3)([CH]3CCCCC3)[CH]3CCCCC3)(OCC2)O1` (centres unmarked) [compound 36] was tested, and the Degree of injury [3] was “-~+”.

In the case of `CCC1CN2CC(C)O[Si](CCC[S][Sn]([CH]3CCCCC3)([CH]3CCCCC3)[CH]3CCCCC3)(OC(C)C2)O1` (centres unmarked) [compound 37], the Degree of injury [3] is reported as “-”.

In the case of `CC(C)(C)[CH2][Sn]([CH2]C(C)(C)C)([CH2]C(C)(C)C)[S]CC[Si]12OCCN(CCO1)CCO2` [compound 38], the Degree of injury [3] is reported as “-”.

For `CCO[PH](=O)O` [reference compound], the Control index (Plasmopara viticola; 200 ppm active ingredient) was 68%.
